From ChEMBL document CHEMBL1201862, “PubChem BioAssay data set” (2004)
Activity calls are given as the source filed them.

Columns and labels:
[1] = target: Mitogen-activated protein kinase 10 (Homo sapiens, UniProt P53779); assay: Dose response biochemical screening assay for inhibitors of c-Jun N-Terminal Kinase 3 (JNK3). [Related pubchem assays: 746 ]
[2] = target: ADP-ribosylation factor GTPase-activating protein 1 (Rattus norvegicus, UniProt Q62848); assay: Fluorescence polarization-based biochemical high throughput dose response screening assay to identify inhibitors of ADP-ribosylation factor GTPase activating protein 1 (ARFGAP1).; type: functional
Sequence of ADP-ribosylation factor GTPase-activating protein 1 (Q62848 whole entry): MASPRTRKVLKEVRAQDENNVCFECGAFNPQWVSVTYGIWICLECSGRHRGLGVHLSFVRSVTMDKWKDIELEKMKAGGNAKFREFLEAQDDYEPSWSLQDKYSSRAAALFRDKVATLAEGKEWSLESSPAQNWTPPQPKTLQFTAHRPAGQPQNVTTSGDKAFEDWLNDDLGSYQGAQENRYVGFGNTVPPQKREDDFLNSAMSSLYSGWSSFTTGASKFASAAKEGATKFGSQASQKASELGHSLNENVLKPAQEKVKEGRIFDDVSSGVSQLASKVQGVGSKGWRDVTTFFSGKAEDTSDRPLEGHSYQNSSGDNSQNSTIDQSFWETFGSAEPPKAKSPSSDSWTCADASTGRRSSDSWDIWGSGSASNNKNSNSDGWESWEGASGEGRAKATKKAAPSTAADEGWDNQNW

[3] = target: Photoreceptor-specific nuclear receptor (Homo sapiens, UniProt Q9Y5X4); assay: ligands suppressing NR2E3 nuclear receptor activity – biochemical, TR-FRET, dose response (AID 463256); type: functional
Sequence of Photoreceptor-specific nuclear receptor (Q9Y5X4 whole entry): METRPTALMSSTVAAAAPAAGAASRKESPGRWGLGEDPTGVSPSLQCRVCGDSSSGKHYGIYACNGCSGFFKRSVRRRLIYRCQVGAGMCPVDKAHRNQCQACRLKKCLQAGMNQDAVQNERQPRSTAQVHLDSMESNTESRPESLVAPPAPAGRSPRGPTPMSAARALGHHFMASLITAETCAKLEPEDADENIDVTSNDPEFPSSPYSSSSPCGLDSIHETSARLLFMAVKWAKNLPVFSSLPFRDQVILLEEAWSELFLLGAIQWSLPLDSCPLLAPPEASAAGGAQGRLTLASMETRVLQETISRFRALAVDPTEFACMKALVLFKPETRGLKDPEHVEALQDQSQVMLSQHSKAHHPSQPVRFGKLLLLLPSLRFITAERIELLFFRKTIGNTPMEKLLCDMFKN

[4] = target: Peroxisome proliferator-activated receptor gamma/Nuclear receptor corepressor 2 (Homo sapiens, UniProt P37231+Q9Y618); assay: Counterscreen for NR2E3 inverse agonists: TR-FRET-based biochemical high throughput dose response assay to identify inverse agonists of the interaction between peroxisome proliferator-activated receptor gamma (PPARg) and nuclear receptor co-repressor 2 (NCOR2).; type: functional
[5] = M. tuberculosis H37Rv growth inhibitors, H37Rv strain (AID 1626); type: functional
Ephrin type-A receptor 4 = Ephrin type-A receptor 4 (Mus musculus, UniProt Q03137); assay: EphA4 ligand-binding antagonists – biochemical, colorimetric, mouse EphA4, primary screen (AID 689); type: functional
Sequence of Ephrin type-A receptor 4 (Q03137 whole entry): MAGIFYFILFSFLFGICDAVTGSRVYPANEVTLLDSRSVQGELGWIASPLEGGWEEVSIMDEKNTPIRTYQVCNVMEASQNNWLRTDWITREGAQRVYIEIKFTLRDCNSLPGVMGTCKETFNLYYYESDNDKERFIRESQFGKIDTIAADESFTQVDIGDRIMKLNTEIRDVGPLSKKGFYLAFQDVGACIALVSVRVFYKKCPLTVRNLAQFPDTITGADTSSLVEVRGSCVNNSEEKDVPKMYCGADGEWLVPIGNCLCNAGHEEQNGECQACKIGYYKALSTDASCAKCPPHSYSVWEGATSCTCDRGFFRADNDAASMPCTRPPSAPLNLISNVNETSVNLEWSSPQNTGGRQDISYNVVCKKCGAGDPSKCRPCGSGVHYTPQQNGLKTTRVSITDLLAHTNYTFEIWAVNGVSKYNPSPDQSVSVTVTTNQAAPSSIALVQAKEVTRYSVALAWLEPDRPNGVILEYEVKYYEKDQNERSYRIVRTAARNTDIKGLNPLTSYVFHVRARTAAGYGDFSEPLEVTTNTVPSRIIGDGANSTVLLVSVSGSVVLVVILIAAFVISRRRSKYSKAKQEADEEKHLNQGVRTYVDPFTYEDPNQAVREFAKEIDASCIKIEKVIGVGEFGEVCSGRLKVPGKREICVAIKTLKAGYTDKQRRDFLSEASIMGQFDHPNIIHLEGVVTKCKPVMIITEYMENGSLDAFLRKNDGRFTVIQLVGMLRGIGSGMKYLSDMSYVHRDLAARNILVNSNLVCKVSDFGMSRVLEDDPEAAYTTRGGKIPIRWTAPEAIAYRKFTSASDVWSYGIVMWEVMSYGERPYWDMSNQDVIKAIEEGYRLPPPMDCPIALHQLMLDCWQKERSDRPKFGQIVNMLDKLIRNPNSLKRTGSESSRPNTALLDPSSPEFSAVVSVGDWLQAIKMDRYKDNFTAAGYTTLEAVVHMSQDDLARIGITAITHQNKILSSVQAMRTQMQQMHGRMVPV

[6] = target: T1, Mannose-6-phosphate isomerase (Homo sapiens, UniProt P34949); assay: MPI enzyme activity inhibition – biochemical, fluorescence intensity, coupled assay, primary screen (AID 1209)
T1 sequence (P34949 whole entry): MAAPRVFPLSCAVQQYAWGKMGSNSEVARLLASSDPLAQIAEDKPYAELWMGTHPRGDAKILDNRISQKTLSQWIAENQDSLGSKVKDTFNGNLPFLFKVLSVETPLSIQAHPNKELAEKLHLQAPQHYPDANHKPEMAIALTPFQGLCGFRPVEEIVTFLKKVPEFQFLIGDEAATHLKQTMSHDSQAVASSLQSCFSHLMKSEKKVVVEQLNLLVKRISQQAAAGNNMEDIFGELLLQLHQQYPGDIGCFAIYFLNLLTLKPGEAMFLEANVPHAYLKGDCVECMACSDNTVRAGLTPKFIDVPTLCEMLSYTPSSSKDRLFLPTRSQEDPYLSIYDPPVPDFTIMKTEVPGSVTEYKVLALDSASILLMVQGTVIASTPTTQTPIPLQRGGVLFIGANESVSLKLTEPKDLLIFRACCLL

[7] = target: Protein-tyrosine kinase 2-beta (Homo sapiens, UniProt Q14289);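 also: potency of inhibitors of PYK2 kinase phosphorylation of poly-GT substrate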
Sequence of Protein-tyrosine kinase 2-beta (Q14289 whole entry): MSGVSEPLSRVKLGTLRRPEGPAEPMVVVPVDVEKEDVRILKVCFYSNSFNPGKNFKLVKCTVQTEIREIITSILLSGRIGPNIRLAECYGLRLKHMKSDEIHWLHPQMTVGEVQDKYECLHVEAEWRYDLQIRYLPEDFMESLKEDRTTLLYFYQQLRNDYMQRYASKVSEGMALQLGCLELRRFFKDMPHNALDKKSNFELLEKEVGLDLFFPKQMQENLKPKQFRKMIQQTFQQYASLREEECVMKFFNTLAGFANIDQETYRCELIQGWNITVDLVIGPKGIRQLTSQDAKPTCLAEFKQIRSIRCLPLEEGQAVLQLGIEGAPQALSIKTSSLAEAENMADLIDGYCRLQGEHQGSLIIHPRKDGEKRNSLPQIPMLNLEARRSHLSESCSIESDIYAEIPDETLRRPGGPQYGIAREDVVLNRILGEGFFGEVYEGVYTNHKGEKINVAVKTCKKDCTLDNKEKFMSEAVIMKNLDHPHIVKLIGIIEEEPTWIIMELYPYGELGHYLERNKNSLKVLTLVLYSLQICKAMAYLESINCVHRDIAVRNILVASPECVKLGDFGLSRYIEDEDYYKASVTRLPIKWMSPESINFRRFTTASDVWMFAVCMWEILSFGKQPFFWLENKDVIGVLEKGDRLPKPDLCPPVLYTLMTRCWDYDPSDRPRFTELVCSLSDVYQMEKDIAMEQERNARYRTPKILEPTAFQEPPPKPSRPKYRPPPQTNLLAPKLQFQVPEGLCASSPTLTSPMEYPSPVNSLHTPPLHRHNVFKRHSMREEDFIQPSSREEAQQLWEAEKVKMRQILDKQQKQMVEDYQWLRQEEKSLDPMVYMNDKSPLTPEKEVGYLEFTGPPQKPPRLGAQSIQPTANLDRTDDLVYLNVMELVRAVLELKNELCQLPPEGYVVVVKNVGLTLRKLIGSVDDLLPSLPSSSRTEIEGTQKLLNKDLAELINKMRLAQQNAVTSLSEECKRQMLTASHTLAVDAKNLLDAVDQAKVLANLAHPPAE

Genome polyprotein = Genome polyprotein (Hepatitis C virus, UniProt Q2Q167); assay: disruption of hepatitis C core self-association – biochemical, TR-FRET, dose response (AID 2159); parameters: species or system Hepacivirus hominis;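 also: blocks dimerization of HCV core protein measured by TR-FRET between tagged core106 pairs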
Sequence of Genome polyprotein (Q2Q167 whole entry): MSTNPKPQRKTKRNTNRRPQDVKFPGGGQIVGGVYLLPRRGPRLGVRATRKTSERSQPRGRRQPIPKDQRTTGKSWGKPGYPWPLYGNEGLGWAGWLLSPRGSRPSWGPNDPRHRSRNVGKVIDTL

[8] = Plasmodium falciparum Dd2 Sybr green parasite growth Measured in Cell-Based and Microorganism Combination System Using Plate Reader - 2153-01_Inhibitor_Dose_DryPowder_Activity_Set3.; type: functional
[9] = Dd2 malaria parasite growth inhibition potency – SYBR Green, dry powder samples, dose response (AID 1159566); type: functional, cell-based;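 also: potency for growth inhibition with lower SYBR green DNA signal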
[10] = A549 cell cytotoxicity, dose response, cytotoxicity control, plate reader, cherry-pick, antagonist series (AID 743412); type: functional, cell-based
[11] = growth inhibition of yeast DHODH-expressing 3D7 parasites – SYBR Green, dry powder samples, dose response (AID 1159570); type: functional, cell-based;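 also: parasite growth measured after 72 hours of compound exposure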
[12] = toxicity to human HepG2 hepatoma cells – cell-based, plate reader, dry powder samples, cytotoxicity control, dose response (AID 1159569); type: functional;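 also: inhibitor potency with signal falling toward the positive control level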
[13] = growth inhibition of PfATP4-mutant resistant parasites – NITD609-resistant line, SYBR Green, dry powder, dose response (AID 1159571); type: functional, cell-based;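 also: parasites synchronized at ring stage by sorbitol before testing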
[14] = P. falciparum Dd2 growth inhibitors, dose response, SYBR Green, cherry-picked samples (AID 1159567); type: functional, cell-based
D(1B) dopamine receptor = D(1B) dopamine receptor (Homo sapiens, UniProt P21918); assay: Counterscreening of D4 Antagonists against Dopamine 5 DRD5 (Human), Confirmatory Assay.; type: functional
Sequence of D(1B) dopamine receptor (P21918 whole entry): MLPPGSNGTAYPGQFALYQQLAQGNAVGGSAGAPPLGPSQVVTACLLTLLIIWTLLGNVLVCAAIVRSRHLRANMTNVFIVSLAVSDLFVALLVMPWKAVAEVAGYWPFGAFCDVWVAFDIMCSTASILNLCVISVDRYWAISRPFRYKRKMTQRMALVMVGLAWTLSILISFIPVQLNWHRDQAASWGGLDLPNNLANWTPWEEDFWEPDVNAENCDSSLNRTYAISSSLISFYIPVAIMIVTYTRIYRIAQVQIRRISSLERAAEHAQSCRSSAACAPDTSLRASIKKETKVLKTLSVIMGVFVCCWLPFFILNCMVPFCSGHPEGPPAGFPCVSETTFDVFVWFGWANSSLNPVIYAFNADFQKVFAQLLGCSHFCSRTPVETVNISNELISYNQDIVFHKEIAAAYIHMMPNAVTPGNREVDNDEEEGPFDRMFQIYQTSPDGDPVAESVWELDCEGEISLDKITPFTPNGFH

D(2) dopamine receptor = D(2) dopamine receptor (Homo sapiens, UniProt P14416); assay: Counterscreening of D4 Antagonists against Dopamine 2S (Human), Confirmatory Assay.; type: functional
D(1A) dopamine receptor = D(1A) dopamine receptor (Homo sapiens, UniProt P21728); assay: Counterscreening of D4 Antagonists against Dopamine 1 (Human), Confirmatory Assay.; type: functional
Sequence of D(1A) dopamine receptor (P21728 whole entry): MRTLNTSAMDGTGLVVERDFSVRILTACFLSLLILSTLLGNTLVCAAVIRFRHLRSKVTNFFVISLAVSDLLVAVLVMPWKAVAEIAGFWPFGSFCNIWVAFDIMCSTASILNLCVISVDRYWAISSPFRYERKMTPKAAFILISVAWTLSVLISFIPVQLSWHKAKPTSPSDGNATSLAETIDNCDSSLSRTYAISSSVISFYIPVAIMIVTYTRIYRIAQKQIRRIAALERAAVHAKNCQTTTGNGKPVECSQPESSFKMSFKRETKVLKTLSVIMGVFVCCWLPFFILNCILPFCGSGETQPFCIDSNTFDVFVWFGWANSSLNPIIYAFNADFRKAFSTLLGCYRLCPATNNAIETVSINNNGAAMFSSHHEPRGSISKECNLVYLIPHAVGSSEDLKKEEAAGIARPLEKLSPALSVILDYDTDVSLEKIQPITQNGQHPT

D(3) dopamine receptor = D(3) dopamine receptor (Homo sapiens, UniProt P35462); assay: Counterscreening of D4 Antagonists against Dopamine 3 DRD3 (Human), Confirmatory Assay.; type: functional
Sequence of D(3) dopamine receptor (P35462 whole entry): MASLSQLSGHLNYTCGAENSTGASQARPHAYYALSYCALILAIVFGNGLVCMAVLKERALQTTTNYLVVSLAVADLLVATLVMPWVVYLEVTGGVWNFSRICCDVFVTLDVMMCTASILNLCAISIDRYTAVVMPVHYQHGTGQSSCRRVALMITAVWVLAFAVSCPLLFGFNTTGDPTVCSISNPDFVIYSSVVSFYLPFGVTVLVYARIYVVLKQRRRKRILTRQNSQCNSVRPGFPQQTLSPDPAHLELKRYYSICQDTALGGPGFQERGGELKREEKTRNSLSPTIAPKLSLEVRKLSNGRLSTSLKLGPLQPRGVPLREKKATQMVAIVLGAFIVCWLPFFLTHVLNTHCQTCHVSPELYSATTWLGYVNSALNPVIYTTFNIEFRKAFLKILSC

[15] = target: Metabotropic glutamate receptor 7 (Homo sapiens, UniProt Q14831); assay: potentiation of glutamate EC20 at mGlu7 – cell-based, calcium mobilization, Galpha15, dose response (AID 743384); type: functional
Large T antigen = Large T antigen (Simian virus 40, UniProt P03070); type: functional, Betapolyomavirus macacae;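 also: Confirmatory-stage PubChem screen for compounds that inhibit SV40 T antigen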
[16] = Potency on glucagon-like peptide 1 release, dose-response in NCI-H716 cell line, half maximal inhibitory concentration (AID 1117344); type: functional, cell-based
[17] = glucagon-like peptide-1 release potency in STC-1, concentration-response, half-maximal inhibitory concentration in the STC-1 line (AID 1117345); type: functional, cell-based
[18] = IC50 of insulin release inhibition, rat insulinoma INS-1E line, 5 mM glucose, cell-based (AID 1117331); type: functional

Sequence of Mitogen-activated protein kinase 10 (P53779 whole entry): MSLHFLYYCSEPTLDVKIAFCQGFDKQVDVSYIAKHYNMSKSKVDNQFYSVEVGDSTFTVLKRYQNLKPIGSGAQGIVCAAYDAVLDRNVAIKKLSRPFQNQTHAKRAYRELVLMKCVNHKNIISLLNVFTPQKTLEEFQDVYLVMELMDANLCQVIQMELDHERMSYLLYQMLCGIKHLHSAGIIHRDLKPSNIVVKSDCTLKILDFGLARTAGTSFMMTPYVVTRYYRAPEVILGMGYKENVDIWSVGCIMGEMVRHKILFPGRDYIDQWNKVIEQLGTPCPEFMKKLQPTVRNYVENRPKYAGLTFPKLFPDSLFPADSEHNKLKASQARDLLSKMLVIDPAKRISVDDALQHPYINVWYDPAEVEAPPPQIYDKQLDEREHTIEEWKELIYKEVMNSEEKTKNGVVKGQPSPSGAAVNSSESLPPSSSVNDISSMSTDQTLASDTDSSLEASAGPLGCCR

N#Cc1c(N)nc2c(c1-c1ccco1)CCCCC2
IC50 [1]: > 93.1 µM (not active)

Cc1c(C(=O)Nc2ccc(-n3cnnn3)cc2)oc2ccccc12
IC50 [2]: 78.5 µM (inactive) | IC50 [3]: 8.46 µM (active) | IC50 [4]: 7.48 µM (active)

O=C(Oc1ccc2ccc(O)cc2c1)C1CCCCC1
IC50 [5]: > 100 µM (active)

CCOc1ccc(S(=O)(=O)N(CC(=O)N/N=C/c2ccc(-c3ccc([N+](=O)[O-])cc3)o2)c2ccccc2)cc1
IC50 (Ephrin type-A receptor 4): 45.6 µM (active) | IC50 [6]: 36.4 µM (active) | IC50 [7]: 15.8 µM (not active) | IC50 (Genome polyprotein): > 49.8 µM (not active)

CCCNC(=O)N1[C@H](C#N)[C@H](c2ccc(C#Cc3ccc(F)cc3)cc2)[C@H]1CO
AC50 [8]: 0.00982 µM (active) | AC50 [9]: 0.016 µM (active) | AC50 [10]: 24.7 µM (active) | AC50 [11]: 7.89 µM (active) | AC50 [12]: 22.3 µM (active) | AC50 [13]: 0.0156 µM (active) | AC50 [14]: < 0.3 µM (active)

Clc1ccc(CN2CCO[C@H](CCc3ccccc3)C2)cc1
IC50 (D(1B) dopamine receptor): 20 µM (inactive) | IC50 (D(2) dopamine receptor): 20 µM (inactive) | IC50 (D(1A) dopamine receptor): 20 µM (inactive) | IC50 (D(3) dopamine receptor): 20 µM (inactive)

CC(=O)Nc1ccc(SCC(=O)c2cc(C)n(CCc3cccs3)c2C)cc1
EC50 [15]: 2 µM (active)

Oc1ccc(O)cc1 [HYDROQUINONE]
IC50 (Large T antigen): 7.76 µM (active) | IC50 [16]: > 40 µM (inactive) | IC50 [17]: 1.01 µM (active) | IC50 [18]: > 33.3 µM (inactive)
